Measurements published in patent publication US20240059688A1, “CONOLIDINE ANALOGUES AS SELECTIVE ACKR3 MODULATORS FOR THE TREATMENT OF CANCER” (Luxembourg Institute of Health (LIH), priority 2020, published 2024).

What was measured:
Format in all cases: cell-based
[1] = biological target: T1, human CXCR4 (Homo sapiens, UniProt P61073); experiment: CXCR4 β-arrestin recruitment assay (PathHunter); conditions: human CXCR4-C2Cl2 cells, relative to CXCL-12
T1 construct: host or cells: C2C12
Procedure, shortened: (§1)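 Agonist mode in PathHunter CHO cells expressing human ACKR3-β-arrestin-2, compounds added in DPBS/1% DMSO for 1.5 hr at 37° C, then detection 1 hr at room temperature, luminescence read. CXCR4 run in C2C12 cells with a 3 hr Cell Plating Reagent 4 preincubation. EC50 and % Emax from three-parameter fits, CXCL-12 as reference agonist; ≥2 independent experiments in duplicate.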

[2] = biological target: KOR (Homo sapiens, UniProt P41145); experiment: KOR calcium mobilization agonist/antagonist screen (CHO-RD-HGA16 cells); set-up: host or cells: CHO-RD-HGA16; conditions: single concentration; for Emax: CHO-RD-HGA16, agonist screen, control agonist U69,593; for KOR Calcium % U69, 593 Inhibition: antagonist screen, vs EC60 of U69,593
Protocol: (§2) Compounds were evaluated for kappa (KOR), mu (MOR), and delta (DOR) opioid receptor agonist and antagonist activity in three individual cell lines overexpressing Gαq16 (CHO-RD-HGA16, Molecular Devices) and the human kappa, mu, and delta opioid receptors, respectively. The day before the assay, cells were plated into 96-well black-walled assay plates at 30,000 cells/well in Ham's F12 supplemented with 10% fetal bovine serum, and 100 units of penicillin and streptomycin. The cells were incubated overnight at 37° C., 5% CO2. Prior to the assay, Calcium 5 dye (Molecular Devices) was reconstituted according to the manufacturer's instructions. The reconstituted dye was diluted 1:40 in pre-warmed (37° C.) assay buffer (1×HBSS, 20 mM HEPES, 2.5 mM probenecid, pH 7.4 at 37° C.). Growth medium was removed and the cells were gently washed with 100 μL of pre-warmed (37° C.) assay buffer. The cells were incubated for 45 minutes at 37° C., 5% CO2 in 200 μL of the diluted Calcium 5 dye. For the agonist screen, a single concentration of each test compound and receptor-specific controls (U69,593, DAMGO, and DPDPE for KOR, MOR, and DOR, respectively) were prepared at 10× the desired final concentration in 1% DMSO/assay buffer, aliquoted into a 96-well polystyrene plate, and warmed to 37° C. After the dye-loading incubation period, pretreatment solution was added to each well (25 μL of 9% DMSO/assay buffer) and, after 15 min, the plate was read with a FlexStation II (Molecular Devices). Calcium-mediated changes in fluorescence were monitored every 1.52 seconds over a 60 second time period, with the FlexStation II adding 50 μL of test compounds at the 19 second time point (excitation at 485 nm, detection at 525 nm). Peak kinetic reduction (SoftMax, Molecular Devices) relative fluorescence units (RFU) were used to calculate % control agonist Emax with the equation % Emax=(test compound RFU/control agonist RFU)×100. For the antagonist screens, the same procedure was followed except that the pretreatment solution consisted of the test compounds (prepared at […] the desired final concentration in 9% DMSO/assay buffer) and the FlexStation added the EC60 concentration (prepared at 10× the desired final concentration in 1% DMSO/assay buffer) of each respective control agonist. Peak RFU were used to calculate % control EC60 inhibition with the equation % inhibition=((EC60 RFU−test compound RFU)/EC60 RFU)×100. When IC50 determinations were made, the same antagonist screen procedure was followed except that cells were pretreated with 8-pt concentration-response curves of the test compounds. Peak RFU were plotted against the log of compound concentration using non-linear regression analysis to generate IC50 values (GraphPad Prism). Each test sample was analyzed in duplicate in two independent experiments.

[3] = biological target: MOR (Homo sapiens, UniProt P35372); experiment: MOR calcium mobilization agonist/antagonist screen (CHO-RD-HGA16 cells); set-up: host or cells: CHO-RD-HGA16; conditions: single concentration; for Emax: CHO-RD-HGA16, agonist screen, control agonist DAMGO; for MOR Calcium % DAMGO Inhibition: antagonist screen, vs EC60 of DAMGO
Protocol: as §2

[4] = biological target: DOR (Homo sapiens, UniProt P41143); experiment: DOR calcium mobilization agonist/antagonist screen (CHO-RD-HGA16 cells); set-up: host or cells: CHO-RD-HGA16; conditions: single concentration; for Emax: CHO-RD-HGA16, agonist screen, control agonist DPDPE; for DOR Calcium % DPDPE Inhibition: antagonist screen, vs EC60 of DPDPE
Protocol: as §2

[5] = biological target: T2, CaV 3.2 (Homo sapiens, UniProt O95180); experiment: CaV 3.2 calcium assay in stable human CaV3.2-HEK293 cells; conditions: control agonist calcium chloride
T2 construct: expressed in transfected cells
Protocol: as §2
Compounds were evaluated for activity at CaV 3.2 using stable human CaV3.2-HEK293 cells and the control agonist calcium chloride. The day before the assay, cells were plated into 96-well black-walled assay plates coated with poly-D-lysine in DMEM-F12 supplemented with 10% fetal bovine serum, 100 units penicillin/streptomycin, and 500 μM sodium pyruvate, and incubated at 37° C., 5% CO2 overnight. Prior to the assay, Calcium 5 dye (Molecular Devices) was reconstituted according to the manufacturer instructions. The reconstituted dye was diluted 1:10 in pre-warmed (37° C.) assay buffer (1×HBSS, […], […], pH 7.4 at 37° C.). The cells were incubated for 45 minutes at 37° C., 5% CO2 in 200 μL of the diluted Calcium 5 dye. Compounds were prepared as described above and the plate was read with a FLIPR Tetra (Molecular Devices). Calcium-mediated changes in fluorescence were monitored every 1 second over a 60 second time period, with the Tetra adding 25 μL of appropriate compound at the 10 second time point (excitation at 470-495 nm, detection at 515-575 nm). […]

[6] = biological target: ACKR3 (Homo sapiens, UniProt P25106); experiment: ACKR3 β-arrestin recruitment assay (PathHunter, β-galactosidase complementation); conditions: for EC50: stable human ACKR3-β-arrestin-2-CHO cells, mean ± SEM, at least two independent experiments in duplicate; for Emax: read-out: ACKR3 β-arrestin % CXCL12 Emax ± SEM
Procedure, shortened: as §1

KOR, sequence (P41145 whole entry): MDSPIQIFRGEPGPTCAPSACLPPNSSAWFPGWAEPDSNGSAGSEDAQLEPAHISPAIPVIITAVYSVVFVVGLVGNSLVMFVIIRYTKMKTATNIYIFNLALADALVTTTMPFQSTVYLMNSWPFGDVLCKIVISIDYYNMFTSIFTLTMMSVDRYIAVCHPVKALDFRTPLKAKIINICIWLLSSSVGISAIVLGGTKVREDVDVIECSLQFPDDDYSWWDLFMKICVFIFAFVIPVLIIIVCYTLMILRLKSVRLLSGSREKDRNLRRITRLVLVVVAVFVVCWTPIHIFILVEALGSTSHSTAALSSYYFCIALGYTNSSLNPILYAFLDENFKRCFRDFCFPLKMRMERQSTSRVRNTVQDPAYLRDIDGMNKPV
ACKR3, sequence (P25106 whole entry): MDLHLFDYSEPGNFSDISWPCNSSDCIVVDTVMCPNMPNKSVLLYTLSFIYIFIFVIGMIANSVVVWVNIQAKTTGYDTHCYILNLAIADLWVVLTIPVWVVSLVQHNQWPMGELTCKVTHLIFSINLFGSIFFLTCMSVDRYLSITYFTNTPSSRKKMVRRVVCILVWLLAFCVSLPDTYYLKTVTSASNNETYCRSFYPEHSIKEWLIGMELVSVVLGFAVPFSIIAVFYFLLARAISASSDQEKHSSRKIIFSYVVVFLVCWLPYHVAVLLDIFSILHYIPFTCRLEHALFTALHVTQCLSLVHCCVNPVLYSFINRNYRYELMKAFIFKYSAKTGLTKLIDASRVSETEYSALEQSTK
DOR, sequence (P41143 whole entry): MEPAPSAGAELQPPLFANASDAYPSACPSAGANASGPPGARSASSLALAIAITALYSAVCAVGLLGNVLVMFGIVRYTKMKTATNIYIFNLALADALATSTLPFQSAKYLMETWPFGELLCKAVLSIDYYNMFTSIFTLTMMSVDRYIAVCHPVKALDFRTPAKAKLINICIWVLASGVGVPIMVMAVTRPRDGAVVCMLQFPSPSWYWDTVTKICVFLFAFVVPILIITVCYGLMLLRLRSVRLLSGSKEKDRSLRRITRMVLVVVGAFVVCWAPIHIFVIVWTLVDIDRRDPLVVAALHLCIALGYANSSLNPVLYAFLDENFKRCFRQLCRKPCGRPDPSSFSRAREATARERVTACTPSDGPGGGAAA
T2 sequence (O95180 whole entry): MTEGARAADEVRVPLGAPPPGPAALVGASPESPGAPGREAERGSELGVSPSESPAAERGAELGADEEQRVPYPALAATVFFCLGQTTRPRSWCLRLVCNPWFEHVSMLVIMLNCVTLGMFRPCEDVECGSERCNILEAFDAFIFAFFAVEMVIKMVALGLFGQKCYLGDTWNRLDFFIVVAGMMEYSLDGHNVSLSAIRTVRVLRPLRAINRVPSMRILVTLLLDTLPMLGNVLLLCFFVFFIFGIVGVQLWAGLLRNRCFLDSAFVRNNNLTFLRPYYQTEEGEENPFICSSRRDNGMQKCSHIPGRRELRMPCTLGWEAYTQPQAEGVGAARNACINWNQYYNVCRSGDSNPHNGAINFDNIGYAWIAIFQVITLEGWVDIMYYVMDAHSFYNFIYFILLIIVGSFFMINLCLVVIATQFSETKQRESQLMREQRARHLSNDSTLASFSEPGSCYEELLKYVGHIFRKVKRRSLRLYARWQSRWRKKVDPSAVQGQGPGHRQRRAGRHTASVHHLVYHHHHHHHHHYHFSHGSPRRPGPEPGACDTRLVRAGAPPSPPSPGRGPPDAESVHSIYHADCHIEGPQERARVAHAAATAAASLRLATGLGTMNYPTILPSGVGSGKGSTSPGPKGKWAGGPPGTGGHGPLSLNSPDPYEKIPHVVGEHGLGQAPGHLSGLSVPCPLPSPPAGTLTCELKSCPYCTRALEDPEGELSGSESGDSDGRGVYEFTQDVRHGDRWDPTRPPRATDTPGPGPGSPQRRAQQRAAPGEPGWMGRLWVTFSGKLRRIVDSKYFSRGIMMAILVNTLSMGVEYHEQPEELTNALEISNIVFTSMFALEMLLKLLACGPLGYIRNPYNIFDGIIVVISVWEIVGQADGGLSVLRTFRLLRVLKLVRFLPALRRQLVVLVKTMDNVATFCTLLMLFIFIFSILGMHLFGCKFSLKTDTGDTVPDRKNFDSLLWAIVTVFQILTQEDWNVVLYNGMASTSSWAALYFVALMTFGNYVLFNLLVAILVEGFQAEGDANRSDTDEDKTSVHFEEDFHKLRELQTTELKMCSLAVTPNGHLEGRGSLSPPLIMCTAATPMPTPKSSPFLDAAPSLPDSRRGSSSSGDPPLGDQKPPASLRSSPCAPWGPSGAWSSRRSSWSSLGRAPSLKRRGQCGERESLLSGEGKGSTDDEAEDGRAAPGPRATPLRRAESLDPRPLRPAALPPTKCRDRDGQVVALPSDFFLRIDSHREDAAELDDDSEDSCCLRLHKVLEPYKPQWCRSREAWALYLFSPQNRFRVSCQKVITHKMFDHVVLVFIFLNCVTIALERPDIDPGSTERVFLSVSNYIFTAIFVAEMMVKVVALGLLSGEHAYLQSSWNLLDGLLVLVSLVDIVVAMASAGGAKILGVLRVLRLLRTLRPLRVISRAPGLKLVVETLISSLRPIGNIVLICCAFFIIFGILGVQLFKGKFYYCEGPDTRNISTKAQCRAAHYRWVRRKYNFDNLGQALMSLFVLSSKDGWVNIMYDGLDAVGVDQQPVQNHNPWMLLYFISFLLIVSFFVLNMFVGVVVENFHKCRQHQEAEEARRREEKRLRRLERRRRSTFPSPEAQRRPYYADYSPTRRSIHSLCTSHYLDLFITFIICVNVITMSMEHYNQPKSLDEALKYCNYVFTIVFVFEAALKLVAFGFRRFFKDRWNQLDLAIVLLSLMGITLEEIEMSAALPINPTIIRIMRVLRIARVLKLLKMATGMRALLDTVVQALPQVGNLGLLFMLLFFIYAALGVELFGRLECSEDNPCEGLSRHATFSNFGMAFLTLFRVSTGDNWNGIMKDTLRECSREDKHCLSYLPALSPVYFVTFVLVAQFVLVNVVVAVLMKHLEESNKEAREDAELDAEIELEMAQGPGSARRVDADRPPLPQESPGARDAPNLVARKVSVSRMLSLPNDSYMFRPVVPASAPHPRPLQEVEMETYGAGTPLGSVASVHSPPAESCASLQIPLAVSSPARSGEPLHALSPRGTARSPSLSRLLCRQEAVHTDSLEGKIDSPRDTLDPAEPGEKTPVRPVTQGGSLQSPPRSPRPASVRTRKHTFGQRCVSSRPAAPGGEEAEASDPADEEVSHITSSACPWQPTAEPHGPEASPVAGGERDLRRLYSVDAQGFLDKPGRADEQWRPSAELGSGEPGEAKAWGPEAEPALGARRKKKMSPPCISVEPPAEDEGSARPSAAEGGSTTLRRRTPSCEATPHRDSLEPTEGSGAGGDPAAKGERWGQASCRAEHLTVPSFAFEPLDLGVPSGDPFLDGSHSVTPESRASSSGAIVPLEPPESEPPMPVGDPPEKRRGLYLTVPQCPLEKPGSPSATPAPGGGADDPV
T1 sequence (P61073 whole entry): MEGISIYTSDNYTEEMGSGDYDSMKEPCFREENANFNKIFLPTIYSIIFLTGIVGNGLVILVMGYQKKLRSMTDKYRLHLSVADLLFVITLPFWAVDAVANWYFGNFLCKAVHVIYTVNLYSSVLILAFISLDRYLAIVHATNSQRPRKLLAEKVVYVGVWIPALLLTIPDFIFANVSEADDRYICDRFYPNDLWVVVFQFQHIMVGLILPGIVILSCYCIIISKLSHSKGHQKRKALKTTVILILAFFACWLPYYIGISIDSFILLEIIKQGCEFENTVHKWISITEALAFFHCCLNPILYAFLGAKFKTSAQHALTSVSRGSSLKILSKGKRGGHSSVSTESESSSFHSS
MOR, sequence (P35372 whole entry): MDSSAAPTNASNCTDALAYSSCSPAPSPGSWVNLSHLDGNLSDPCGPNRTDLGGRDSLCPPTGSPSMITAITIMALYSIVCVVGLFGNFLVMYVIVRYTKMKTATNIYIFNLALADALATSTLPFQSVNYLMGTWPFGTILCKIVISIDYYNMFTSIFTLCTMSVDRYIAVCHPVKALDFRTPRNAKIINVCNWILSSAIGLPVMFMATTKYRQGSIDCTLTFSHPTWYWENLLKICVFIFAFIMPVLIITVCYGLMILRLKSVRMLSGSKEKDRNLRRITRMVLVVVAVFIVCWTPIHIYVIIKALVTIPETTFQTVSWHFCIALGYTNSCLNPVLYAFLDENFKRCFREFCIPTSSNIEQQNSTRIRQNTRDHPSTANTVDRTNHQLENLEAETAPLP

Row | SMILES | CXCR4 β-arrestin % CXCL-12Emax (n = 2) [1] | Emax [2] | KOR Calcium % U69, 593 Inhibition [2] | Emax [3] | MOR Calcium % DAMGO Inhibition [3] | Emax [4] | DOR Calcium % DPDPE Inhibition [4] | CaV 3.2 % CaCl2 Inhibition [5] | EC50 [6] | Emax [6]
1 | C/C=C1/CN(CC(C)C)CC[C@H]1C(=O)c1cc2ccccc2[nH]1 [WW-10, [(3E,4R)-3-ethylidene-1-(2-methylpropyl)piperidin-4-yl](1H-indol-2-yl)methanone] | 2% | 7% | 8% | 1% | 0% | 4% | 5% | −3% | > 10 µM | 
2 | C/C=C1/CN(CCC)CC[C@H]1C(=O)c1cc2ccccc2[nH]1 [WW-14, [(3E,4R)-3-ethylidene-1-propylpiperidin-4-yl](1H-indol-2-yl)methanone] | 8% | 3% | 6% | 1% | 1% | 5% | 0% | 5% | 3.28 ± 0.39 µM | 84 ± 6%
3 | CCC1CN2CC[C@H]1C(=O)c1[nH]c3ccccc3c1C2 (stereo partly drawn) [WW-15, (5R)-4-ethyl-1,4,5,7-tetrahydro-2,5-ethanoazocino[4,3-b]indol-6(3H)-one] | 7% | 20% | 18% | 0% | 7% | 0% | 3% | 2% | > 10 µM | 
4 | C=C1c2[nH]c3ccccc3c2CN2CC[C@@H]1/C(=C\C)C2 [WW-16, (4E,5R)-4-ethylidene-6-methylidene-1,3,4,5,6,7-hexahydro-2,5-ethanoazocino[4,3-b]indole] | 6% | 2% | 23% | 0% | 15% | 0% | 18% | 21% | 4.62 ± 0.41 µM | 81 ± 5%
5 | CCOC(=O)C1CCN(Cc2c[nH]c3ccccc23)CC1 [WW-17, ethyl 1-(1H-indol-3-ylmethyl)piperidine-4-carboxylate] | 7% | 1% | 5% | 1% | 4% | 0% | 11% | −11% | 4.81 ± 0.45 µM | 146 ± 6%
6 | O=C(c1cc2ccccc2[nH]1)C1CCN(Cc2ccccc2)CC1 [WW-18, (1-Benzylpiperidin-4-yl)(1H-indol-2-yl)methanone] | 8% | 0% | 8% | 0% | 2% | 0% | 6% | −2% | > 10 µM | 
